Reference: ChEMBL document CHEMBL3576867, “Cytotoxic activity of rearranged drimane meroterpenoids against colon cancer cells via down-regulation of β-catenin expression” (J Nat Prod, 2015)
Calls of active or inactive are those of the source. The rule behind the calls is not given here.

Columns and labels:
HEK293 [1] = assay: Inhibition of Wnt/beta-catenin pathway in HEK293 cells assessed as downregulation of Wnt3a-CM-activated beta-catenin expression at 1.5 to 6 uM after 15 hrs by Western blot analysis; format: cell-based; details: Homo sapiens
SW480 [2] = assay: Cytotoxicity against human SW480 cells assessed as growth inhibition at >20 uM after 48 hrs by Cell-Titer-Glo assay in presence of 5-epi-nakijinone; format: functional, cell-based
HCT-116 [3] = assay: Cytotoxicity against human HCT116 cells assessed as growth inhibition at >20 uM after 48 hrs by Cell-Titer-Glo assay in presence of 5-epi-nakijinone; format: functional, cell-based
HEK293 [4] = assay: Inhibition of Wnt/beta-catenin pathway in HEK293 cells assessed as decrease in Wnt3a-CM-induced beta-catenin response regulated transcription level at 10 to 40 uM after 15 hrs by TOPflash reporter gene assay in presence of 5-epi-nakijinone; format: cell-based; details: Homo sapiens
HEK293 [5] = assay: Inhibition of Wnt/beta-catenin pathway in HEK293 cells assessed as decrease in Wnt3a-CM-induced beta-catenin response regulated transcription level at 1.5 to 6 uM after 15 hrs by TOPflash reporter gene assay; format: cell-based; details: Homo sapiens
HEK293 [6] = assay: Inhibition of Wnt/beta-catenin pathway in HEK293 cells assessed as downregulation of Wnt3a-CM-activated beta-catenin expression at 10 to 40 uM after 15 hrs by Western blot analysis in presence of 5-epi-nakijinone; format: cell-based; details: Homo sapiens
HCT-116 [7] = assay: Cytotoxicity against human HCT116 cells assessed as growth inhibition after 48 hrs by Cell-Titer-Glo assay; format: functional, cell-based; details: HCT-116, 48 h
SW480 [8] = assay: Cytotoxicity against human SW480 cells assessed as growth inhibition after 48 hrs by Cell-Titer-Glo assay; format: functional, cell-based; details: SW480, 48 h
HEK293 [9] = assay: Inhibition of Wnt/beta-catenin pathway in HEK293 cells assessed as downregulation of Wnt3a-CM-activated beta-catenin expression at 10 to 40 uM after 15 hrs by Western blot analysis; format: cell-based; details: Homo sapiens
SW480 [10] = assay: Cytotoxicity against human SW480 cells assessed as growth inhibition at >20 uM after 48 hrs by Cell-Titer-Glo assay; format: functional, cell-based
HEK293 [11] = assay: Inhibition of Wnt/beta-catenin pathway in HEK293 cells assessed as decrease in Wnt3a-CM-induced beta-catenin response regulated transcription level at 10 to 40 uM after 15 hrs by TOPflash reporter gene assay; format: cell-based; details: Homo sapiens
HCT-116 [12] = assay: Cytotoxicity against human HCT116 cells assessed as growth inhibition at >20 uM after 48 hrs by Cell-Titer-Glo assay; format: functional, cell-based

C=C1CCC[C@H]2[C@](C)(CC3=C4OC(C)(C)N=C4C=C(OC)C3=O)[C@@H](C)CC[C@]12C
inhibition (HEK293 [1]): Active | growth inhibition (GI) (SW480 [2]): Active | growth inhibition (GI) (HCT-116 [3]): Active | inhibition (HEK293 [4]): Active

C=C1CCC[C@H]2[C@](C)(CC3=C(O)C(=O)C=C(OCC)C3=O)[C@@H](C)CC[C@@]12C
inhibition (HEK293 [5]): Active | inhibition (HEK293 [6]): Active | IC50 (HCT-116 [7]): 2.95 µM | IC50 (SW480 [8]): 3.24 µM

C=C1CCC[C@H]2[C@](C)(Cc3c(O)c(OC)cc4nc(C)oc34)[C@@H](C)CC[C@@]12C
inhibition (HEK293 [9]): Active | growth inhibition (GI) (SW480 [10]): Active | inhibition (HEK293 [11]): Active | growth inhibition (GI) (HCT-116 [12]): Active
